We go through 20 substances from patent publication US20100310591A1 (priority 2009, published 2010).

Values joined by “and” are separate entries in the source; they are usually repeats but may differ in a detail not shown here. Equal entries are not always repeated. Non-standard residues stand in square brackets, D forms with d. Ava = NCCCCC(=O)O

Assay [1] relates to CD4+ T cells (CD8+ depleted PBMC of rHA-responsive donors). Format: cell-based, human.
The subject of assay [2] is CD4+ T cells (CD8+ depleted donor PBMC). Format: cell-based, human.
The subject of a further assay is MHC class II molecules. Particulars: cited from earlier work.
The test system of assay [3] is TPc9.1 T hybridoma with CH27 antigen presenting cells. The assay can be described thus: T hybridoma response assay (APC + T hybridoma, HT-2 [3H]TdR uptake readout). In kind it is cell-based, murine. How it is done: Biological Activities of Hybrid Peptides [00103) The biological activities of the series of peptides listed in Table I were determined with the T hybridoma response assay. A T cell hybridoma which is specific to the hornworm moth cytochrome C epitope IAYLKQATAK (SEQ ID NO: 8) was stimulated with that antigenic peptide or with members of the series of hybrids of the antigenic peptide and the core Ii-Key sequence listed in Table I. The hybrids were joined with spacers of various lengths. The spacers contained either amino acids in the natural sequence of the Ii protein, or methylene (—CH2—) groups of 5-amino-n-valeric acid (ava; 5-aminopentanoic acid). Cultures of an antigen presenting cell and T cell hybridoma were incubated with serial 1:4 dilutions of the antigenic peptide, from 3 μM. Response was determined by measuring tritiated thymidine uptake by an HT-2 culture to which supernatants of the antigenic stimulation culture (24 hr stimulation period) had been transferred (see, Table 2). The endpoint for half maximal response to Hybrid 1, the antigenic peptide, was about 20 nM. The endpoint for half maximal stimulation with Hybrids 5 and 2 was about 50 pM.
For this assay the following components were added at the same time of the primary culture: (a) The hybrid peptide containing the antigenic epitope (Table I); (b) mitomycin C-treated, MHC class II-positive antigen presenting cells (APC) with the MHC class II allele required for binding of the specific antigenic peptide and its presentation to the antigenic peptide-specific T cell hybridoma; (c) MHC class II allele-restricted T cell hybridoma specific for the antigenic peptide and the MHC class II allele restricting its presentation. At the end of the incubation of this primary culture, an aliquot of its supernatant was transferred into a second culture well for incubation with an interleukin-dependent lymphoblastoid cell line. The degree of stimulation of that second indicator cell by the interleukins which had been released from the activated T cell hybridoma in the primary culture was measured by quantitating tritiated thymidine deoxyribose {[^3H]TdR} uptake into the DNA of the HT-2 indicator cells of that second culture.
The hybrids between Ii-Key core sequence LRMK (SEQ ID NO: 3) and PGCC95-104, pigeon cytochrome C 95-104, IAYLKQATAK (SEQ ID NO: 8) are presented by E^k. The peptides were dissolved in phosphate-buffered saline (PBS; 0.01 M sodium phosphate buffer, pH 7.2, 0.1 M NaCl). The solutions were sterilized by filtration. The TPc9.1 T hybridoma is specific for pigeon cytochrome C 81-104 peptide presented on the murine class II MHC allele E^k. The CH27 B cell lymphoma line which expresses H-2^k alleles was used as the antigen presenting cell.
Antigenic peptide-specific T cell activation was measured by the following procedure. Mitomycin C-treated CH27 cells (A^kE^k) APC were generated by incubating 5.×10^6 cells/mL for 20 min at 37° C. with 0.025 mg/mL of mitomycin C (Sigma) in Dulbecco's Modified Eagle's Medium (DMEM)/10 mM N-2 (hydroxyethylpiperazine-N′[2-ethanesulfonic acid] (HEPES), followed by two washes with four volumes of DMEM-5% fetal calf serum (FCS), 10 mM HEPES. T cell hybridomas were irradiated 2200 rads before each assay.
For the primary culture assay, 5×10^4 mitomycin C-treated APC, 5×10^4 T hybridoma cells and serial 1:4 dilutions from 3 uM of the peptides containing antigenic epitopes were cultured at pH 7.2-7.4, in complete DMEM-5% FCS, 10 mM HEPES, 1× nonessential amino acids (Sigma), 1 mM sodium pyruvate, 2 mM L-glutamine. 100 U/mL penicillin G, 100 μg/mL streptomycin sulfate, 5×10^−5 M 2-mercaptoethanol (2-ME). Wells containing only T hybridoma cells (T)+APC were included to monitor for background T cell activation; and wells containing T+APC+antigenic peptide were included to monitor for non-specific T hybridoma activation by each AE101 series peptide. […]

For the substance STLNQRLVPRIATRSKV [BEI 38], the “in vitro CD4 response, fold above background” value in assay [1] was found to be 13 fold above background.

For the substance SNVKNLYDKVRLQLRDN [BEI 78], the “in vitro CD4 response, fold above background” value in assay [1] was 3.3 fold above background.

Consider WLIKKNSTYPTILRSYN [BEI 29], for which the “in vitro CD4 response, fold above background” value in assay [1] amounted to 3.6 fold above background.

KMEDGFLDVWTYNAELL [BEI 73]: the “in vitro CD4 response, fold above background” value in assay [1] was found to be 15 fold above background.

For the substance “Ac-LRMK-ava-TIKRSYNNTNQED—NH2 [Ii-Key peptide No. 177]”, in assay [2], the “frequency of recognition (responding vaccine recipients / tested)” value was 10/35 and the “in vitro IFN-γ response (in words)” value is “strongest in vitro IFN-γ responses”.

Consider IGECPKYVKSNRLVLAT [BEI 54], for which the “in vitro CD4 response, fold above background” value in assay [1] is 3.9 fold above background and 3.8 fold above background.

Consider FFRNVVWLIKKNSTYPT [BEI 28], for which the “in vitro CD4 response, fold above background” value in assay [1] is recorded as 3.7 fold above background.

Regarding “Ac-LRMK-ava-KKNSAYPTIKRSY—NH2 [Ii-Key peptide No. 170]”, in assay [2], the “frequency of recognition (responding vaccine recipients / tested)” value was 9/35 and the “in vitro IFN-γ response (in words)” value is reported as “strongest in vitro IFN-γ responses”.

In the case of LRMK (SEQ ID NO: 3), in the assay on MHC class II molecules, the “share of maximal activity of any member of the series of Ii-key peptides” value is recorded as “at least 50%”.

As for VTHAQDILEKTHNGKL [BEI 8], in assay [1], the “in vitro CD4 response, fold above background” value is on record as 3.4 fold above background.

YQNPTTYISVGTSTLNQ [BEI 36]: in assay [1], the “recognition frequency among donors” value stood at 21%.

On to MEKNVTVTHAQDUKEKT [BEI 7], for which, in assay [1], the “in vitro CD4 response, fold above background” value was found to be 12 fold above background.

Take NHFEKIQIIPKSSWSSH [BEI 22]: the “in vitro CD4 response, fold above background” value in assay [1] came out at 4.6 fold above background.

For LRNSPQRERRRKKRGLF [BEI 57], in assay [1], the “in vitro CD4 response, fold above background” value is 4.1 fold above background.

For LVPRIATRSKVNGQSGR [BEI 39], the “in vitro CD4 response, fold above background” value in assay [1] turned out to be 3.8 fold above background.

In the case of PLILRDCSVAGWLLGNP [BEI 12], the “in vitro CD4 response, fold above background” value in assay [1] is 3.3 fold above background.

Regarding YQGKSSFFRNVVWLIKK [BEI 27], the “in vitro CD4 response, fold above background” value in assay [1] worked out at 12 fold above background.

For KRGLFGAIAGFIEGGWQ [BEI 59], in assay [1], the “recognition frequency among donors” value amounted to 21%.

For the substance “Ac-LRMK-ava-HLLSRINHFEKIQ—NH2 [Ii-Key peptide No. 121]”, in assay [2], the “frequency of recognition (responding vaccine recipients / tested)” value was 9/35 and the “in vitro IFN-γ response (in words)” value is given as “strongest in vitro IFN-γ responses”.

With “Ac-LRMK (SEQ ID NO: 3)-5-aminopentanoyl-5-aminopentanoyl-IAYLKQATAK (SEQ ID NO: 8)-NH2 (Ac-LRMK[Ava][Ava]IAYLKQATAK-NH2; SMILES CC[C@H](C)[C@H](NC(=O)CCCCNC(=O)CCCCNC(=O)[C@H](CCCCN)NC(=O)[C@H](CCSC)NC(=O)[C@H](CCCNC(=N)N)NC(=O)[C@H](CC(C)C)NC(C)=O)C(=O)N[C@@H](C)C(=O)N[C@@H](Cc1ccc(O)cc1)C(=O)N[C@@H](CC(C)C)C(=O)N[C@@H](CCCCN)C(=O)N[C@@H](CCC(N)=O)C(=O)N[C@@H](C)C(=O)N[C@H](C(=O)N[C@@H](C)C(=O)N[C@@H](CCCCN)C(N)=O)[C@@H](C)O) [Hybrid 3]”, the “activity of hybrid (in words)” value in assay [3] is “comparable to those with the natural sequence of Ii protein”. The “immunological response to the antigenic epitope (T cell proliferative response)” value in assay [3] (Conc. 0.01 nM) is 0.6 thousands of counts per minute; in assay [3] (Conc. 0.05 nM), 5.3 thousands of counts per minute; in assay [3] (Conc. 0.18 nM), 21.6 thousands of counts per minute; in assay [3] (Conc. 0.73 nM), 22.3 thousands of counts per minute; in assay [3] (Conc. 3 nM), 27.9 thousands of counts per minute; in assay [3] (Conc. 12 nM), 29.5 thousands of counts per minute. For the same substance, the “immunological response to the antigenic epitope (T cell proliferative response)” value in assay [3] (Conc. 47 nM) is on record as 26.2 thousands of counts per minute; in assay [3] (Conc. 188 nM), 26.2 thousands of counts per minute; in assay [3] (Conc. 750 nM), 31.7 thousands of counts per minute; in assay [3] (Conc. 3000 nM), 31.9 thousands of counts per minute.
